In patent US11401306B2, “HPV16 non HLA-restricted t-cell vaccines, compositions and methods of use thereof” (priority 2016, dated 2022):
No end group written: not given here.

Experiments:
[1] = test system: HPV-specific T-cell response (splenocytes); assay: IFN-g ELISPOT on splenocytes of vaccinated humanized HLA-A2 transgenic mice; format: in vivo; details: for Immune Response, Method: ELISPOT: HLA-A2 humanized transgenic mice, IFN-gamma ELISPOT
Excerpt: (§1) Sequence selection was accomplished herein using both tumor regression studies in C57/B6 mice, and interferon-gamma ELISPOT studies in HLA-A2 humanized transgenic mice. […] In the HLA-A2 mouse model ELISPOT study, at least 20 spots per million splenocytes was regarded to be a positive response.
This example highlights the approach to evaluating T-cell responses using ELISPOT studies in humanized HLA-A2 transgenic mice. In these studies, the vaccine contained the selected peptide at a concentration of 0.1-3.0 mg/mL and cationic liposomes when used, at a concentration of 0.2-3.0 mg/mL. Humanized HLA-A2 transgenic mice having components of the human immune system capable of recognizing human antigens were vaccinated on day 0 and day 7 with 100 uL of the vaccine. On day 14 the mice were sacrificed and HPV-specific immune response evaluated by interferon-gamma ELISPOT using standard approaches with the splecocytes from the mice (4-8 per group). The splenocytes were stimulated with the specified CD8+ T-cell epitope peptides or the long multi-epitope peptides specified in Table 2. The number of IFN-g spots per million cells is listed for the specified examples. […] The ability of the humanized transgenic mice to successfully generate a T-cell immune response (>20 spots) when stimulated with each of the long multi-epitope peptides as well as short single epitope peptides confirms that the selected peptides are effectively processed and presented to T-cells. In these studies, un-stimulated splenocytes and splenocytes stimulated with irrelevant peptides were both used together as negative controls in every assay. For the positive control in the assay ConA was used.
The present study was performed to evaluate the effect of chemical modification of select peptides on immunogenicity and their ability to be processed, presented and to prime human CD8+ HPV-specific T-cell responses. Peptides corresponding to SEQ ID NO: 23 and 25 contain cysteines which upon oxidation lead to the formation of dimers and other multimers. Two vaccine formulations were prepared containing peptides corresponding to SEQ ID NO: 23 and 25.
In Formulation A: Both peptides were monomeric with high purity confirmed by HPLC analysis. The vaccine contained 1.5-1.6 mg/mL of each peptide.
In Formulation B: Significant oxidation and multimer formation of both peptides was confirmed by HPLC analysis.
Both formulations were mixed 1:1 with 5.8 mg/mL of R-DOTAP prior to vaccination.
The immunogenicity of the peptides was compared as described in the above examples in 10 HLA-A2 mice per formulation by evaluating the ability to induce CD8+ T-cells. ELISPOT studies were performed as described above.

TC-1 tumor = TC-1 tumor regression screening of peptides in C57/B6 mice; format: in vivo; parameters: key: Positive: a positive T-cell response was a T-cell response that resulted in regression of the tumor; details: TC-1 tumors in C57/B6 mice, vaccinated day 7, peptide alone or with cationic lipid
Excerpt: as §1
This example illustrates the evaluation or screening of several HPV16 E7 peptides in the TC-1 mouse tumor regression model for their effective processing and presentation of the key epitopes leading to HPV-specific T-cell induction and subsequent tumor regression.
In the tumor regression screening studies mice were implanted with 100,000 TC-1 cells on day 0. On day 7, once the tumors were well established the mice were vaccinated with the specific peptide sequences, either formulated alone or in combination with cationic lipids such as DOTMA, DOEPC or R-DOTAP to facilitate up-take and presentation. In these studies, the vaccine contained the selected peptide at a concentration of 0.1-3.0 mg/mL and cationic liposomes at a concentration of 0.2-3.0 mg/mL. In the cases where the peptide sequences were lipidated by attaching a palmitoyl chain, the peptides were simply mixed with the cationic liposomes prior to vaccination. In the case of the non-lipidated peptides, the liposomes were made and peptides encapsulated by traditional thin film liposome preparation methods (F Szoka, and D Papahadjopoulos, Comparative Properties and Methods of Preparation of Lipid Vesicles (Liposomes), Annual Review of Biophysics and Bioengineering, Vol. 9:467-508, 1980). Other methods well known to those skilled in the art may also have been used.
A sample tumor regression plot showing results for peptides corresponding to SEQ ID NO: 1 (blank square), SEQ ID NOS: 7, 8, 31 32 and 31 (solid black circle), SEQ ID NO: 7 (blank circle), and SEQ ID NO: 8 (solid black triangle) is shown in FIG. 3.

[2] = splenocytes stimulated with YMLDLQPETT (SEQ ID NO: 14)
[3] = splenocytes stimulated with TIHDIILECV (SEQ ID NO: 21)
[4] = splenocytes stimulated with LLMGTLGIV (SEQ ID NO: 15)
[5] = splenocytes stimulated with TLGIVCPIC (SEQ ID NO: 22)

CSCC[C@H](NC(=O)[C@@H](N)Cc1ccc(O)cc1)C(=O)N[C@@H](CC(C)C)C(=O)N[C@@H](CC(=O)O)C(=O)N[C@@H](CC(C)C)C(=O)N[C@@H](CCC(N)=O)C(=O)N1CCC[C@H]1C(=O)N[C@@H](CCC(=O)O)C(=O)N[C@H](C(=O)N[C@H](C(=O)O)[C@@H](C)O)[C@@H](C)O [SEQ ID NO: 14]
Immune Response, Method: ELISPOT [1]: Positive, ELISPOT (at least 20 spots per million splenocytes was regarded to be a positive response)
ELISPOT result Av spots/10^6 cells [1, 2]: 580 spots/10^6 cells

CC[C@H](C)[C@H](NC(=O)CNC(=O)[C@H](CC(C)C)NC(=O)[C@@H](NC(=O)CNC(=O)[C@H](CCSC)NC(=O)[C@H](CC(C)C)NC(=O)[C@@H](N)CC(C)C)[C@@H](C)O)C(=O)N[C@H](C(=O)O)C(C)C [SEQ ID NO: 15]
Immune Response, Method: ELISPOT [1]: Positive, ELISPOT (at least 20 spots per million splenocytes was regarded to be a positive response)

CC[C@H](C)[C@H](NC(=O)CNC(=O)[C@H](CC(C)C)NC(=O)[C@@H](N)[C@@H](C)O)C(=O)N[C@H](C(=O)N[C@@H](CS)C(=O)N1CCC[C@H]1C(=O)N[C@H](C(=O)N[C@@H](CS)C(=O)O)[C@@H](C)CC)C(C)C [SEQ ID NO: 22]
Immune Response, Method: ELISPOT [1]: Positive, ELISPOT (at least 20 spots per million splenocytes was regarded to be a positive response)

CDSTLRLCVQ STHVDIRT (CDSTLRLCVQSTHVDIRT) [SEQ ID NO: 32, E7 61-78 peptide]
Immune Response, Method: tumor regression (TC-1 tumor): Positive, tumor

DRAHYNIVTF [SEQ ID NO: 2, HPV16 E7 48-57 peptide]
Immune Response, Method: tumor regression (TC-1 tumor): Negative, tumor regression

ELQTTIHDIILECVYCKQQLL [SEQ ID NO: 11, HPV16 E6 25-45 peptide]
Immune Response, Method: ELISPOT [1]: Positive, ELISPOT (at least 20 spots per million splenocytes was regarded to be a positive response)
ELISPOT result Av spots/10^6 cells [1, 3]: 262 spots/10^6 cells

EPDRAHYNIVTFCCKCDS [SEQ ID NO: 8, HPV16 E7 46-63 peptide]
Immune Response, Method: tumor regression (TC-1 tumor): Negative, tumor regression

GQAEPDRAHYNIVTF [SEQ ID NO: 5, HPV16 E7 43-57 peptide]
Immune Response, Method: tumor regression (TC-1 tumor): Positive, tumor regression

KFYSKISEYRHCYYSLYGTTL [SEQ ID NO: 12, printed as E7 75-95 peptide]
Immune Response, Method: ELISPOT [1]: Negative, ELISPOT
ELISPOT result Av spots/10^6 cells ([1]; splenocytes stimulated with KISEYRHCY (SEQ ID NO: 30)): 15 spots/10^6 cells

KSS GQAEPDRAHYNIVTF (KSSGQAEPDRAHYNIVTF) [SEQ ID NO: 6, HPV16 E7 43-57 peptide with KSS]
Immune Response, Method: tumor regression (TC-1 tumor): Negative, tumor regression

KSS RAHYNIVTF (KSSRAHYNIVTF) [SEQ ID NO: 4, HPV16 E7 49-57 peptide with KSS]
Immune Response, Method: tumor regression (TC-1 tumor): Positive, tumor regression

LLMGTLGIVCPICSQKP [SEQ ID NO: 10, HPV16 E7 82-98 peptide]
Immune Response, Method: ELISPOT [1]: Positive, ELISPOT (at least 20 spots per million splenocytes was regarded to be a positive response)
ELISPOT result Av spots/10^6 cells [1, 4]: 1 spots/10^6 cells
ELISPOT result Av spots/10^6 cells [1, 5]: 27 spots/10^6 cells

MHGDTPTLHEYMLDLQPETT [SEQ ID NO: 9]
Immune Response, Method: ELISPOT [1]: Positive, EISPOT (at least 20 spots per million splenocytes was regarded to be a positive response)
ELISPOT result Av spots/10^6 cells [1, 2]: 235 spots/10^6 cells

PAGQAEPDRAHYNIVTFC [SEQ ID NO: 7, HPV16 E7 41-58 peptide]
Immune Response, Method: tumor regression (TC-1 tumor): Positive, tumor regression

PalmKSS ELQTTIHDIILECVYCKQQLL [SEQ ID NO: 23]
ELISPOT result Av spots/10^6 cells ([1]; Formulation A (monomeric peptides SEQ ID NO: 23 and 25, with R-DOTAP), stimulated with TIHDIILECV (SEQ ID NO: 21)): 314 spots/10^6 cells
ELISPOT result Av spots/10^6 cells ([1]; Formulation B (oxidized, multimer peptides SEQ ID NO: 23 and 25, with R-DOTAP), stimulated with TIHDIILECV (SEQ ID NO: 21)): 158 spots/10^6 cells
Immune Response, Method: ELISPOT [1]: Positive, ELISPOT (at least 20 spots per million splenocytes was regarded to be a positive response)
ELISPOT result Av spots/10^6 cells ([1]; splenocytes stimulated with ELQTTIHDIILECVYCKQQLL (SEQID NO: 13)): 8 spots/10^6 cells
ELISPOT result Av spots/10^6 cells [1, 3]: 612 spots/10^6 cells

PalmKSS LLMGTLGIV [SEQ ID NO: 28]
Immune Response, Method: ELISPOT [1]: Positive, ELISPOT (at least 20 spots per million splenocytes was regarded to be a positive response)
ELISPOT result Av spots/10^6 cells [1, 4]: 96 spots/10^6 cells

PalmKSS LLMGTLGIVCPICSQKP [SEQ ID NO: 25]
ELISPOT result Av spots/10^6 cells ([1]; Formulation A (monomeric peptides SEQ ID NO: 23 and 25, with R-DOTAP), stimulated with LLMGTLGIV (SEQ ID NO: 15)): 52 spots/10^6 cells
ELISPOT result Av spots/10^6 cells ([1]; Formulation B (oxidized, multimer peptides SEQ ID NO: 23 and 25, with R-DOTAP), stimulated with LLMGTLGIV (SEQ ID NO: 15)): 48 spots/10^6 cells
Immune Response, Method: ELISPOT [1]: Positive, ELISPOT (at least 20 spots per million splenocytes was regarded to be a positive response)
ELISPOT result Av spots/10^6 cells [1, 4]: 5 spots/10^6 cells
ELISPOT result Av spots/10^6 cells ([1]; splenocytes stimulated with LLMGTLGIVCPICSQKP (SEQ ID NO: 10)): 92 spots/10^6 cells
ELISPOT result Av spots/10^6 cells [1, 5]: 31 spots/10^6 cells

PalmKSS MHGDTPTLHEYMLDLQPETT [SEQ ID NO: 24]
Immune Response, Method: ELISPOT [1]: Positive, ELISPOT (at least 20 spots per million splenocytes was regarded to be a positive response)
ELISPOT result Av spots/10^6 cells ([1]; splenocytes stimulated with MHGDTPTLHEYMLDLQPETT (SEQ ID NO: 9)): 284 spots/10^6 cells
ELISPOT result Av spots/10^6 cells [1, 2]: 79 spots/10^6 cells

PalmKSS RAHYNIVTF [SEQ ID NO: 3]
Immune Response, Method: tumor regression (TC-1 tumor): Positive, tumor regression

PalmKSS YMLDLQPETT [SEQ ID NO: 27]
Immune Response, Method: ELISPOT [1]: Positive, ELISPOT (at least 20 spots per million splenocytes was regarded to be a positive response)
ELISPOT result Av spots/10^6 cells [1, 2]: 280 spots/10^6 cells

QQLLRREVYDFAFRDLCIVYR [SEQ ID NO: 13, printed as E7 42-62 peptide]
Immune Response, Method: ELISPOT [1]: Negative, ELISPOT
ELISPOT result Av spots/10^6 cells ([1]; splenocytes stimulated with FAFRDLCIV (SEQ ID NO: 29)): 6 spots/10^6 cells

RAHYNIVTF [SEQ ID NO: 1]
Immune Response, Method: tumor regression (TC-1 tumor): Positive, tumor regression

TIHDIILECV [SEQ ID NO: 21, printed as E7 29-38 peptide]
Immune Response, Method: ELISPOT [1]: Positive, ELISPOT (at least 20 spots per million splenocytes was regarded to be a positive response)
